Test results taken from ChEMBL document CHEMBL4385645, “Broad-spectrum antifungal activity of spirooxindolo-pyrrolidine tethered indole/imidazole hybrid heterocycles against fungal pathogens” (Bioorg Med Chem Lett, 2019).
In brackets after ≈: the same amount, converted by molar mass. Each block holds one compound with its values, some of them ahead of it. Activity calls are given as the source filed them. The calls are words filed in the database; no cut-off is given here.

Key:
Candida albicans [1] = test: Antifungal activity against Candida albicans assessed as reduction in fungal growth incubated for 24 hrs by broth microdilution method; assay type: functional
Cryptococcus neoformans [2] = test: Antifungal activity against Cryptococcus neoformans NR-41299 assessed as reduction in fungal growth incubated for 24 hrs by broth microdilution method; assay type: functional; conditions: NR-41299, 24 h
Candida albicans [3] = test: Antifungal activity against Candida albicans NR-29446 assessed as reduction in fungal growth incubated for 24 hrs by broth microdilution method; assay type: functional; conditions: NR-29446, 24 h
Candida albicans [4] = test: Antifungal activity against Candida albicans NR-29444 assessed as reduction in fungal growth incubated for 24 hrs by broth microdilution method; assay type: functional; conditions: NR-29444, 24 h
Candida albicans [5] = test: Antifungal activity against Candida albicans NR-29439 assessed as reduction in fungal growth incubated for 24 hrs by broth microdilution method; assay type: functional; conditions: NR-29439, 24 h
Candida albicans [6] = test: Antifungal activity against Candida albicans NR-29366 assessed as reduction in fungal growth incubated for 24 hrs by broth microdilution method; assay type: functional, organism-based
Candida albicans [7] = test: Antifungal activity against Candida albicans NR-29449 assessed as reduction in fungal growth incubated for 24 hrs by broth microdilution method; assay type: functional; conditions: NR-29449, 24 h
Candida albicans [8] = test: Antifungal activity against Candida albicans NR-29435 assessed as reduction in fungal growth incubated for 24 hrs by broth microdilution method; assay type: functional; conditions: NR-29435, 24 h
Cryptococcus neoformans [9] = test: Antifungal activity against Cryptococcus neoformans NR-41292 assessed as reduction in fungal growth incubated for 24 hrs by broth microdilution method; assay type: functional; conditions: NR-41292, 24 h
Candida albicans [10] = test: Antifungal activity against Candida albicans assessed as reduction in hyphae formation and attachment at 32 to 64 ug/ml incubated for 12 hrs by crystal violet dye-based microscopic analysis; assay type: functional; design: scale not given: the % may be the effect or the level left
Candida albicans [11] = test: Antifungal activity against Candida albicans NR5-29453 assessed as reduction in fungal growth incubated for 24 hrs by broth microdilution method; assay type: functional; conditions: NR5-29453, 24 h
Cryptococcus neoformans [12] = test: Antifungal activity against Cryptococcus neoformans NR-41296 assessed as reduction in fungal growth incubated for 24 hrs by broth microdilution method; assay type: functional; conditions: NR-41296, 24 h
Candida albicans [13] = test: Antifungal activity against Candida albicans NR-29441 assessed as reduction in fungal growth incubated for 24 hrs by broth microdilution method; assay type: functional; conditions: NR-29441, 24 h
Candida albicans [14] = test: Antifungal activity against Candida albicans NR-29434 assessed as reduction in fungal growth incubated for 24 hrs by broth microdilution method; assay type: functional; conditions: NR-29434, 24 h
Cryptococcus neoformans [15] = test: Antifungal activity against Cryptococcus neoformans NR-41298 assessed as reduction in fungal growth incubated for 24 hrs by broth microdilution method; assay type: functional; conditions: NR-41298, 24 h
Candida albicans [16] = test: Antifungal activity against Candida albicans NR-29438 assessed as reduction in fungal growth incubated for 24 hrs by broth microdilution method; assay type: functional; conditions: NR-29438, 24 h
Cryptococcus neoformans [17] = test: Antifungal activity against Cryptococcus neoformans NR-41297 assessed as reduction in fungal growth incubated for 24 hrs by broth microdilution method; assay type: functional; conditions: NR-41297, 24 h
Candida albicans [18] = test: Antifungal activity against Candida albicans NR-29437 assessed as reduction in fungal growth incubated for 24 hrs by broth microdilution method; assay type: functional; conditions: NR-29437, 24 h
Candida albicans [19] = test: Antifungal activity against Candida albicans NR-29440 assessed as reduction in fungal growth incubated for 24 hrs by broth microdilution method; assay type: functional; conditions: NR-29440, 24 h
Candida albicans [20] = test: Antifungal activity against Candida albicans NR-29367 assessed as reduction in fungal growth incubated for 24 hrs by broth microdilution method; assay type: functional; conditions: NR-29367, 24 h
Cryptococcus neoformans [21] = test: Antifungal activity against Cryptococcus neoformans NR-41291 assessed as reduction in fungal growth incubated for 24 hrs by broth microdilution method; assay type: functional; conditions: NR-41291, 24 h
Candida albicans [22] = test: Antifungal activity against Candida albicans NR-29442 assessed as reduction in fungal growth incubated for 24 hrs by broth microdilution method; assay type: functional; conditions: NR-29442, 24 h
Cryptococcus neoformans [23] = test: Antifungal activity against Cryptococcus neoformans NR-41294 assessed as reduction in fungal growth incubated for 24 hrs by broth microdilution method; assay type: functional; conditions: NR-41294, 24 h
HCT-116 = test: Cytotoxicity against human HCT116 cells assessed as reduction in cell viability at 2 to 128 ug/ml incubated for 24 hrs by MTS assay; assay type: cell-based; conditions: hct-116, 24 h
Candida albicans [24] = test: Antifungal activity against Candida albicans ATCC 10231 assessed as reduction in fungal growth incubated for 24 hrs by broth microdilution method; assay type: functional; conditions: ATCC 10231, 24 h
Candida albicans [25] = test: Inhibition of biofilm formation in Candida albicans assessed as reduction in metabolic activity at 32 and 64 ug/ml incubated for 48 hrs by MTS assay; assay type: functional
Cryptococcus neoformans [26] = test: Antifungal activity against Cryptococcus neoformans NR-41295 assessed as reduction in fungal growth incubated for 24 hrs by broth microdilution method; assay type: functional; conditions: NR-41295, 24 h
Candida albicans [27] = test: Antifungal activity against Candida albicans NR-29448 assessed as reduction in fungal growth incubated for 24 hrs by broth microdilution method; assay type: functional; conditions: NR-29448, 24 h

MIC (Candida albicans [1]): 16 µg/mL (≈ 28.2 µM)
Compound: O=C1Nc2ccc(OC(F)(F)F)cc2[C@@]12N[C@H](Cc1c[nH]c3ccccc13)[C@@H]([N+](=O)[O-])[C@@H]2c1cccc([N+](=O)[O-])c1

MIC (Candida albicans [1]): 16 µg/mL (≈ 28.7 µM)
Compound: O=C1Nc2ccc(OC(F)(F)F)cc2[C@@]12N[C@H](Cc1c[nH]c3ccccc13)[C@@H]([N+](=O)[O-])[C@@H]2c1ccccc1Cl

MIC (Candida albicans [1]): 8 µg/mL (≈ 15.3 µM)
Compound: O=C1Nc2ccc(OC(F)(F)F)cc2[C@@]12N[C@H](Cc1c[nH]c3ccccc13)[C@@H]([N+](=O)[O-])[C@@H]2c1ccccc1

MIC (Candida albicans [1]): 32 µg/mL (≈ 61.7 µM)
Compound: O=C1Nc2ccc(OC(F)(F)F)cc2[C@@]12N[C@H](Cc1c[nH]cn1)[C@@H]([N+](=O)[O-])[C@@H]2c1cccc([N+](=O)[O-])c1

MIC (Candida albicans [1]): 8 µg/mL (≈ 14.5 µM)
Compound: O=C1Nc2ccc(OC(F)(F)F)cc2[C@@]12N[C@H](Cc1c[nH]cn1)[C@@H]([N+](=O)[O-])[C@@H]2c1ccc(Br)cc1

MIC (Candida albicans [1]): 16 µg/mL (≈ 28.7 µM)
Compound: O=C1Nc2ccc(OC(F)(F)F)cc2[C@@]12N[C@H](Cc1c[nH]c3ccccc13)[C@@H]([N+](=O)[O-])[C@@H]2c1ccc(Cl)cc1

MIC (Candida albicans [1]): 16 µg/mL (≈ 33.8 µM)
Compound: O=C1Nc2ccccc2[C@@]12N[C@H](Cc1c[nH]c3ccccc13)[C@@H]([N+](=O)[O-])[C@@H]2c1ccc(Cl)cc1

MIC (Candida albicans [1]): 128 µg/mL (≈ 283 µM)
Compound: Cc1ccc([C@H]2[C@H]([N+](=O)[O-])[C@@H](Cc3c[nH]c4ccccc34)N[C@]23C(=O)Nc2ccccc23)cc1

MIC (Candida albicans [1]): 16 µg/mL (≈ 41.1 µM)
Compound: O=C1Nc2ccccc2[C@@]12N[C@H](Cc1c[nH]cn1)[C@@H]([N+](=O)[O-])[C@@H]2c1ccccc1

MIC (Candida albicans [1]): 32 µg/mL (≈ 67.6 µM)
Compound: O=C1Nc2ccc(OC(F)(F)F)cc2[C@@]12N[C@H](Cc1c[nH]cn1)[C@@H]([N+](=O)[O-])[C@@H]2c1ccccc1

MIC (Candida albicans [1]): 8 µg/mL (≈ 16.5 µM)
Compound: O=C1Nc2ccccc2[C@@]12N[C@H](Cc1c[nH]c3ccccc13)[C@@H]([N+](=O)[O-])[C@@H]2c1cccc([N+](=O)[O-])c1

MIC (Candida albicans [1]): 64 µg/mL (≈ 124 µM)
Compound: O=C1Nc2ccccc2[C@@]12N[C@H](Cc1c[nH]c3ccccc13)[C@@H]([N+](=O)[O-])[C@@H]2c1ccc(Br)cc1

MIC (Candida albicans [1]): 16 µg/mL (≈ 32.8 µM)
Compound: Cc1ccc([C@H]2[C@H]([N+](=O)[O-])[C@@H](Cc3c[nH]cn3)N[C@]23C(=O)Nc2ccc(OC(F)(F)F)cc23)cc1

MIC (Candida albicans [1]): 32 µg/mL (≈ 76.3 µM)
Compound: COc1ccc([C@H]2[C@H]([N+](=O)[O-])[C@@H](Cc3c[nH]cn3)N[C@]23C(=O)Nc2ccccc23)cc1

MIC (Cryptococcus neoformans [2]): 16 µg/mL (≈ 31.5 µM)
MIC (Candida albicans [3]): 4 µg/mL (≈ 7.88 µM)
MIC (Candida albicans [4]): 16 µg/mL (≈ 31.5 µM)
MIC (Candida albicans [1]): 4 µg/mL (≈ 7.88 µM)
MIC (Candida albicans [5]): 8 µg/mL (≈ 15.8 µM)
MIC (Candida albicans [7]): 8 µg/mL (≈ 15.8 µM)
MIC (Candida albicans [8]): 8 µg/mL (≈ 15.8 µM)
MIC (Cryptococcus neoformans [9]): 16 µg/mL (≈ 31.5 µM)
MIC (Candida albicans [11]): 16 µg/mL (≈ 31.5 µM)
MIC (Cryptococcus neoformans [12]): 16 µg/mL (≈ 31.5 µM)
MIC (Candida albicans [13]): 8 µg/mL (≈ 15.8 µM)
MIC (Candida albicans [14]): 16 µg/mL (≈ 31.5 µM)
MIC (Cryptococcus neoformans [15]): 8 µg/mL (≈ 15.8 µM)
MIC (Candida albicans [16]): 16 µg/mL (≈ 31.5 µM)
MIC (Cryptococcus neoformans [17]): 16 µg/mL (≈ 31.5 µM)
MIC (Candida albicans [18]): 16 µg/mL (≈ 31.5 µM)
MIC (Candida albicans [19]): 16 µg/mL (≈ 31.5 µM)
MIC (Candida albicans [20]): 16 µg/mL (≈ 31.5 µM)
MIC (Cryptococcus neoformans [21]): 16 µg/mL (≈ 31.5 µM)
MIC (Candida albicans [22]): 8 µg/mL (≈ 15.8 µM)
MIC (Cryptococcus neoformans [23]): 4 µg/mL (≈ 7.88 µM)
MIC (Candida albicans [24]): 8 µg/mL (≈ 15.8 µM)
MIC (Cryptococcus neoformans [26]): 16 µg/mL (≈ 31.5 µM)
MIC (Candida albicans [27]): 4 µg/mL (≈ 7.88 µM)
Compound: O=C1Nc2ccc(OC(F)(F)F)cc2[C@@]12N[C@H](Cc1c[nH]cn1)[C@@H]([N+](=O)[O-])[C@@H]2c1ccccc1Cl
inhibition (Candida albicans [6]): Active
Activity (Candida albicans [10]): 30 - 40%
Activity (HCT-116): Non-Toxic
inhibition (INH) (Candida albicans [25]): <=25%

MIC (Candida albicans [1]): 16 µg/mL (≈ 29 µM)
Compound: COc1ccc([C@H]2[C@H]([N+](=O)[O-])[C@@H](Cc3c[nH]c4ccccc34)N[C@]23C(=O)Nc2ccc(OC(F)(F)F)cc23)cc1

MIC (Candida albicans [1]): 32 µg/mL (≈ 67.7 µM)
Compound: O=C1Nc2ccccc2[C@@]12N[C@H](Cc1c[nH]c3ccccc13)[C@@H]([N+](=O)[O-])[C@@H]2c1ccccc1Cl

MIC (Candida albicans [1]): 64 µg/mL (≈ 146 µM)
Compound: O=C1Nc2ccccc2[C@@]12N[C@H](Cc1c[nH]c3ccccc13)[C@@H]([N+](=O)[O-])[C@@H]2c1ccccc1

MIC (Candida albicans [1]): 64 µg/mL (≈ 159 µM)
Compound: Cc1ccc([C@H]2[C@H]([N+](=O)[O-])[C@@H](Cc3c[nH]cn3)N[C@]23C(=O)Nc2ccccc23)cc1

MIC (Candida albicans [1]): 16 µg/mL (≈ 36.8 µM)
Compound: O=C1Nc2ccccc2[C@@]12N[C@H](Cc1c[nH]cn1)[C@@H]([N+](=O)[O-])[C@@H]2c1cccc([N+](=O)[O-])c1

MIC (Candida albicans [1]): 8 µg/mL (≈ 18.9 µM)
Compound: O=C1Nc2ccccc2[C@@]12N[C@H](Cc1c[nH]cn1)[C@@H]([N+](=O)[O-])[C@@H]2c1ccccc1Cl

MIC (Candida albicans [1]): 8 µg/mL (≈ 15.8 µM)
Compound: O=C1Nc2ccc(OC(F)(F)F)cc2[C@@]12N[C@H](Cc1c[nH]cn1)[C@@H]([N+](=O)[O-])[C@@H]2c1ccc(Cl)cc1

MIC (Candida albicans [1]): 32 µg/mL (≈ 59.6 µM)
Compound: Cc1ccc([C@H]2[C@H]([N+](=O)[O-])[C@@H](Cc3c[nH]c4ccccc34)N[C@]23C(=O)Nc2ccc(OC(F)(F)F)cc23)cc1

MIC (Candida albicans [1]): 8 µg/mL (≈ 18.9 µM)
Compound: O=C1Nc2ccccc2[C@@]12N[C@H](Cc1c[nH]cn1)[C@@H]([N+](=O)[O-])[C@@H]2c1ccc(Cl)cc1

MIC (Candida albicans [1]): 16 µg/mL (≈ 34.2 µM)
Compound: COc1ccc([C@H]2[C@H]([N+](=O)[O-])[C@@H](Cc3c[nH]c4ccccc34)N[C@]23C(=O)Nc2ccccc23)cc1

MIC (Candida albicans [1]): 8 µg/mL (≈ 13.3 µM)
Compound: O=C1Nc2ccc(OC(F)(F)F)cc2[C@@]12N[C@H](Cc1c[nH]c3ccccc13)[C@@H]([N+](=O)[O-])[C@@H]2c1ccc(Br)cc1

MIC (Candida albicans [1]): 32 µg/mL (≈ 63.6 µM)
Compound: COc1ccc([C@H]2[C@H]([N+](=O)[O-])[C@@H](Cc3c[nH]cn3)N[C@]23C(=O)Nc2ccc(OC(F)(F)F)cc23)cc1

MIC (Candida albicans [1]): 16 µg/mL (≈ 34.2 µM)
Compound: O=C1Nc2ccccc2[C@@]12N[C@H](Cc1c[nH]cn1)[C@@H]([N+](=O)[O-])[C@@H]2c1ccc(Br)cc1
